According to BindingDB's records for PubMed 1586393 (U. 109, 1992):

Biological target: D(3) dopamine receptor (Homo sapiens, UniProt P35462)
Sequence (P35462 as listed by the source): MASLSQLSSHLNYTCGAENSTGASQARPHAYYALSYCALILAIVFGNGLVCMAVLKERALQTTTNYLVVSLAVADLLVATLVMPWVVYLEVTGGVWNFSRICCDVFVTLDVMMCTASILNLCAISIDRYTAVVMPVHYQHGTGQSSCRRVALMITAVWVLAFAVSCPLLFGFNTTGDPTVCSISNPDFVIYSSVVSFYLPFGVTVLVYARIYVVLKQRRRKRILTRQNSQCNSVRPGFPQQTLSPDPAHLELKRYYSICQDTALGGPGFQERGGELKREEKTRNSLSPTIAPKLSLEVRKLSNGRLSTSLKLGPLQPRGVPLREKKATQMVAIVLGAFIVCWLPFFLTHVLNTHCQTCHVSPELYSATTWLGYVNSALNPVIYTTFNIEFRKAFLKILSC

SMILES	Ki [nM]
NC(=O)C1(N2CCCCC2)CCN(CCCN2c3ccccc3CCc3ccccc32)CC1 [CAS_5942-95-0]	15
CN(C)S(=O)(=O)c1ccc2c(c1)N(CCCN1CCC(CCO)CC1)c1ccccc1S2 [CAS_39860-99-6]	0.28
CCCN[C@@H]1CCc2c(OC)cccc2[C@@H]1C [CAS_85379-09-5]	139
CCCN(CCC)C1C=Cc2c(OC)cccc2C1C (configuration not stated) [CAS_5311190]	11

Second part, the compound after the results:

Ki [nM]	SMILES
34	Nc1nc2c(ncn2[C@@H]2O[C@H](COP(=O)(O)OP(=O)(O)NP(=O)(O)O)[C@@H](O)[C@H]2O)c(=O)[nH]1 [Guanylyl imidodiphosphate]
1.2	CN1CCN(CCCN2c3ccccc3Sc3ccc(S(=O)(=O)N(C)C)cc32)CC1 [NSC_92178]
1.3	CCS(=O)(=O)c1cc(C(=O)NCC2CCCN2CC2CC2)c(OC)cc1I (configuration not stated) [NSC_122245]
